From patent publication US20220096664A1, “STABILIZED FORMULATIONS CONTAINING IODINATED CONTRAST AGENTS AND CYCLODEXTRINS” (Verrow Pharmaceuticals, Inc., priority 2012, published 2022) come the findings set out here.

Each structure is given as a SMILES string. Like-named read-outs stand apart in the source and are kept apart here.

The format of series [1] is physicochemical. The method, then: (§1) The lamps were switched on and the solutions irradiated for 18 to 24 hours for the ultraviolet (UV) lamps or 72 to 90 hours for the visible (VIS) light lamps. At the end of the selected irradiation time, the cuvettes were removed from the photolysis chamber and mixed by inversion 2-times. The caps were then removed and 40 microliter aliquots taken and diluted with 1 mL of an aqueous solution containing ˜0.9 mg/mL sodium thiosulfate. The thiosulfate solution converted any I2, IO3^−, and I3^− present in the solution tor such that total iodine species could be determined in one assay.
(§2) The diluted solutions were assayed by high pressure liquid chromatography (HPLC) using a 4.6×250 mm, C-18, 5 micron particle size, reversed phase column with detection at 280 nm for the contrast agent and 230 nm for the thiosulfate and the iodide ion (r). A mobile phase of 30:70 methanol:aqueous buffer (50 mM KH2PO4+7 mL/L 40% tetrabutyl ammonium hydroxide) at 0.75 mL/min was used for elution. Injection volume was 20 microliters. External standards were prepared containing each contrast agent, potassium iodide, and sodium thiosulfate solution and analyzed along with the irradiated samples. The results were reported as weight percentage iodide formed (mg iodide/mg contrast agent times 100).
Aqueous solutions were prepared containing 50 mM iodinated contrast agent, 10 mM tromethamine HCl buffer (TRIS), with and without sulfobutylether beta-cyclodextrin with an average degree of substitution-7 (SBE7-β-CD), or 2-hydroxypropyl beta-cyclodextrin with an average degree of substitution of ˜6.3 (HP6.3-β-CD) or ˜4.3 (HP4.3-β-CD). The iohexol solution was prepared by dissolving solid iohexol powder while the other solutions were prepared by diluting commercial formulated products and adding sufficient TRIS buffer to reach 10 mM. The pH of the solutions was adjusted to 7.4 with 0.1N hydrochloric acid.
Aliquots of the solutions were irradiated with visible light for 72 hours (0.52 million lux hours). Other aliquots were autoclaved for 20 minutes at 121° C., cooled to room temperature and then irradiated with ultraviolet light for 18 hours (119 watt hours/m2). The solutions were then processed, analyzed and reported as in Example 2, except that the chromatographic peaks of the contrast agents were evaluated at 300 nm for both samples and standards. […]
Aqueous formulations were prepared containing iodinated contrast agents at concentrations used commercially in medical procedures. Sulfobutylether-cyclodextrin, sodium salt, average degree of substitution ˜7 (SBE7CD) was added at varying agent:CD mole ratios. The formulations were placed in glass vials, sealed with rubber stoppers and aluminum crimps, and autoclaved at 121° C. for 20 minutes. Aliquots of the autoclaved solutions were exposed to UV light for 24 hours (159 watt hours/m^2 or VIS light for 72 hours (0.52 million lux hours) as in Example 2. The solutions were then processed, analyzed and reported as in Example 2, with the following two exceptions; 1) the chromatographic peaks of the contrast agents were evaluated at 300 nm for both samples and standards, and 2) only 20 microliter sample aliquots were taken and diluted for HPLC analysis due to the higher concentrations used in this study. Results of the study are presented in the table below along with the solution compositions.

Series [2] can be described thus: Photostability: iodide formed after UV light irradiation. Conditions: 18 h, 50 mM. The class given is physicochemical. The method, then: Aqueous solutions comprising iodinated contrast agents were prepared and evaluated in a photolysis chamber as described in the ICH guidance document, Q1B Photostability Testing of New Drug Substances and Products, available from the US Food and Drug Administration, incorporated herein by reference. The solutions were placed in 1 cm×1 cm (3 mL) quartz cuvettes having 2 clear sides and 2 sides etched. Lids were placed on the cuvettes and sealed with a wrap of Parafilm® around the joint. The cuvettes were placed in a photolysis chamber, upright on a flat surface beneath and centered between two horizontal 24 inch fluorescent lamps, (GE, black light F20T12, 20 watt for ultraviolet, or Philips F20T12/CW, 20 watt for visible) placed 6 cm apart. The cuvettes were positioned such that their two clear sides were facing the two lamps.
Cuvettes were spaced ˜2 cm from each other, and no closer than 15 cm from the ends of the lamps. This positioning allowed reproducible light exposure to all cuvettes.
as §1, §2
The absorbance readings at 400 nm due to light exposure were plotted against time of exposure and the resulting correlation used to determine the UV and VIS light exposure. A change in absorbance reading of 0.45 was assumed equivalent to 200 watt hours/square meter for the UV light and a change of 0.51 was assumed equivalent to 1.2 million lux hours for the VIS light. The UV lamps provided 6.62 watts/square meter and the VIS lamps provided 7180 lux.
Aqueous solutions were prepared containing 50 mM contrast agent by diluting commercially available solutions with water. Tromethamine HCl buffer (TRIS), was added to solutions as necessary to increase the TRIS content to that of the commercial product before dilution.
SCD was added to the solutions at various mole ratios and the pH of the solutions adjusted to 7.4 with 0.1N hydrochloric acid or 0.1N sodium hydroxide. The solutions were irradiated with UV light for 18 hours (119 watt hours/m^2) then processed, analyzed and reported as in Example 2. The SCDs evaluated were sulfobutyl ether beta-cyclodextrin with an average degree of substitution of 7 (SBE-704CD), and two 2-hydroxypropyl beta-cyclodextrin derivatives having 6.3 (HP-6.3n/CD) and 4.3 (HP-4.3-βCD) average degrees of substitution.
Aqueous solutions were prepared containing 50 mM contrast agent by diluting commercially available solutions with distilled water. Tromethamine HCl buffer (TRIS), was added to some solutions to increase the buffer content.
The solutions were divided and SBE-7-CD added to one aliquot at a contrast agent:SCD mole ratio of 1:1. The pH of the solutions was adjusted to 5, 6, 7, 7.4 or 8 with 0.1N hydrochloric acid or sodium hydroxide. […]

As to `CC(=O)N(CC(O)CN(C(C)=O)c1c(I)c(C(=O)NCC(O)CO)c(I)c(C(=O)NCC(O)CO)c1I)c1c(I)c(C(=O)NCC(O)CO)c(I)c(C(=O)NCC(O)CO)c1I` (centres unmarked) [Iodixanol, iodixanol], the “Iodide Formed, Autoclaved” value stood at 0.0161 wt % in series [1] (Iodixanol 270 mg I/mL, pH 7.4, agent:SBE7CD 1:0.05); 0.0167 wt % in series [1] (Iodixanol 270 mg I/mL, pH 7.4, no SCD (1:0)); 0.0135 wt % in series [1] (Iodixanol 320 mg I/mL, pH 7.4, agent:SBE7CD 1:0.05); 0.0132 wt % in series [1] (Iodixanol 320 mg I/mL, pH 7.4, no SCD (1:0)).
In the case of `O=C(NCC(O)CO)c1c(I)c(C(=O)NCC(O)CO)c(I)c(N(CCO)C(=O)CO)c1I` (centres unmarked) [Ioversol, ioversol], the “percent change in iodide degradants formed in the presence of the SCD” value in series [1] (20 min, 50 mM, pH 7.4) is “(−30.8%)”. The “Iodide Formed, Autoclaved” value was determined as 0.0241 wt % in series [1] (Ioversol 160 mg I/mL, pH 7.1, agent:SBE7CD 1:0.05); 0.0244 wt % in series [1] (Ioversol 160 mg I/mL, pH 7.1, no SCD (1:0)); 0.0162 wt % in series [1] (Ioversol 240 mg I/mL, pH 7.1, agent:SBE7CD 1:0.05); 0.0160 wt % in series [1] (Ioversol 240 mg I/mL, pH 7.1, no SCD (1:0)); 0.0129 wt % in series [1] (Ioversol 300 mg I/mL, pH 7.1, agent:SBE7CD 1:0.05); 0.0135 wt % in series [1] (Ioversol 300 mg I/mL, pH 7.1, no SCD (1:0)). For the same compound, the “Iodide Formed, Autoclaved” value is listed as 0.0127 wt % in series [1] (Ioversol 320 mg I/mL, pH 7.1, agent:SBE7CD 1:0.05); 0.0130 wt % in series [1] (Ioversol 320 mg I/mL, pH 7.1, no SCD (1:0)); 0.0120 wt % in series [1] (Ioversol 350 mg I/mL, pH 7.1, agent:SBE7CD 1:0.05); 0.0124 wt % in series [1] (Ioversol 350 mg I/mL, pH 7.1, no SCD (1:0)). The “% Change in iodide degradants formed in the presence of the SCD” value in series [2] (pH 5) is −43.6%; in series [2] (pH 7.4), −58.5%; in series [2] (pH 8) it was −47%.
Regarding `COCC(=O)Nc1c(I)c(C(=O)NCC(O)CO)c(I)c(C(=O)N(C)CC(O)CO)c1I` (centres unmarked) [Iopromide, iopromide], the “Iodide Formed, Autoclaved” value came out at 0.00289 wt % in series [1] (Iopromide 150 mg I/mL, pH 7.4, agent:SBE7CD 1:0.05); 0.00383 wt % in series [1] (Iopromide 150 mg I/mL, pH 7.4, no SCD (1:0)); 0.00217 wt % in series [1] (Iopromide 240 mg I/mL, pH 7.4, agent:SBE7CD 1:0.05); 0.00204 wt % in series [1] (Iopromide 240 mg I/mL, pH 7.4, no SCD (1:0)); 0.00118 wt % in series [1] (Iopromide 300 mg I/mL, pH 7.4, agent:SBE7CD 1:0.05); 0.00145 wt % in series [1] (Iopromide 300 mg I/mL, pH 7.4, no SCD (1:0)). In addition, the “Iodide Formed, Autoclaved” value in series [1] (Iopromide 370 mg I/mL, pH 7.4, agent:SBE7CD 1:0.05) was found to be 0.00072 wt %; in series [1] (Iopromide 370 mg I/mL, pH 7.4, no SCD (1:0)), 0.00111 wt %.
